Test results as given in US12214080B2, “Micronized lipids” (MCAL Therapeutics Inc., priority 2021, dated 2025).
Entries after “also recorded” stand apart in the source; their conditions may differ.

Tests used:
healthy dogs = experiment: Tear film break-up time (TBUT) after topical ocular administration; type: in vivo, dog; settings: 5 healthy adult dogs, single administration (FIG. 6)
Method: (§1) A non-GLP topical ocular administration dose range-finding pharmacology and toxicity study of MCAL-201 was conducted in naïve dogs. The primary study objective was to assess the tolerability of topical ocular administration of MCAL-201 in dogs with a secondary objective to obtain data supporting pharmacological activity in healthy dogs.
(§2) The effects of vehicle and 0.1, 0.5, 1, 3 and 10 mg/mL MCAL-201 delivered as a 35 μL drop bilaterally QD (0.0035, 0.0175, 0.035, 0.105 and 0.35 mg/eye/day) were evaluated in Part I. The dosing regimen is summarized in 3.
(§3) Scoring of the ocular surface and anterior segment of the eye was performed using the SPOTS system by a board-certified veterinary ophthalmologist. SPOTS was performed for each concentration evaluated. To measure TBUT, fluorescein was instilled in the eye and the eye was manually closed and then gently opened to simulate a blink. The time interval between the opening of the eye and the first sign of disruption of the uniform tear film, as indicated by breaks in the fluorescein was recorded in seconds. The procedure was repeated three times on both eyes, first right than left eye. After BID dosing with 10 mg/mL MCAL-201, SPOTS was also performed at 48 hours after the last dose.

naïve dogs = experiment: Non-GLP topical ocular dose range-finding toxicity and tolerability study (SPOTS, IOP, STT); type: in vivo
Method: as §1, §2, §3

[1] = Chemical and isomeric stability (1,2-EPRG to 1,3-EPRG acyl migration), NMR analysis; type: physicochemical
From the text: This led to development of the delivery of solid MCAL-201 as a suspension of crystalline or amorphous micronized solid particle suspended in a water-based formulation isotonic with tear. Although MCAL-201 crystalline drug substance floated on phosphate buffered saline (PBS) it could be suspended following micronization to 1-10 micron particles which could be stably suspended in PBS with the aid of polysorbate 80 as a wetting agent and xanthan gum to adjust density and viscosity of the drug product.

[2] = Solubility and general physicochemical properties of MCAL-201
Method: The general and physiochemical properties of MCAL-201 are: • 1,2-EPRG has a molecular weight of 611.05 g/mol • Empirical formula: C39H78O4 • Appearance: White powder • Particle size: 1-10 μm (post micronization) • Hygroscopicity: Low • Chirality: Racemic • Enantiomeric excess: 0 • Melting point: 57° C. • Solubility: Insoluble in water. Soluble in chloroform (40 mg/mL) and castor oil (25 mg/mL)
However, preparation of a water soluble cyclodextrin inclusion complex of MCAL-201 was used in nonclinical efficacy studies. In addition, solutions of MCAL-201 in castor oil which can be emulsified to micron sized liquid particles in aqueous buffers can be used to deliver MCAL-201 directly to the tear film lipid layer.

[3] = Physical stability of the micronized suspension toward separation of particles; type: physicochemical; settings: suspension in PBS with polysorbate 80 and xanthan gum, room temperature
From the text: Treatment of these particles with poly-sorbate 80 (0.3% w/w) as a wetting agent affords a suspension of the micronized particles in a mixture of xanthan gum (0.1-0.3% w/w, See FIG. 3) in Phosphate Buffered Saline (PBS, pH 6-8, 260-320 mOsm/L) suitable for administration as a stably suspended topical drop or suspension for injection.

CCCCCCCCCCCCCCCCCCCCOCC(CO)OC(=O)CCCCCCCCCCCCCCC (racemic) [MCAL-201, 1-O-eicosanyl-2-palmitoyl-rac-glycerol]
Tear film break-up time (TBUT) (healthy dogs): extended TBUT
Ocular or systemic adverse events (naïve dogs; any time or concentration evaluated (up to 10 mg/mL OU BID for 48 hours)): no ocular or systemic adverse events
Tolerability (naïve dogs; topical ocular 35 μL drop, up to 10 mg/mL OU BID for 48 hours): well tolerated
1,3-EPRG isomeric content ([1]; after jet mill micronization, NMR (FIG. 4)): 1.15 mol %
Long-term chemical stability in the liquid solution phase (acyl migration of the palmitoyl group from 2 to 3 position) ([1]; liquid solution phase): lacked long-term chemical stability
Isomeric stability in the suspension formulation, duration demonstrated ([1]; micronized MCAL-201 in suspension formulation, room temperature): 6 weeks
1,3-EPRG isomeric content ([1]; solid micronized suspension stored at room temperature for 6 weeks, NMR (FIG. 5)): 0.0991 mol %
Isomeric stability in the solid phase compared with solution ([1]; solid phase): far greater than in solution
Hygroscopicity [2]: Low
Solubility in water ([2]; water): Insoluble; also recorded: extreme insolubility
Physical stability of the micronized suspension (floating, sinking or aggregation), duration demonstrated [3]: > 6 months
